Data published in US11434330B2, “Polyrotaxanes bearing mixed cyclodextrin species and uses thereof” (Purdue Research Foundation, priority 2015, dated 2022).

Key:
[1] = tested on: Niemann-Pick C1-deficient (npc1−/−) fibroblasts; assay: Cholesterol mobilization (filipin staining) in npc1−/− fibroblasts; format: cell-based; conditions: 6 h after treatment, total β-CD concentration 25 μM
Protocol: PR carrying an increasing percentage of SBE-β-CD were administered to Niemann-Pick C1-deficient (npc1−/−) fibroblasts to examine their ability to mobilize cholesterol from sites of aberrant accumulation. Each PR family member, generated with a 0%, 30%, 50%, 60%, or 100% SBE-β-CD feed ratio, was administered at a total β-CD concentration of 25 μM and compared to administration of 25 μM SBE-β-CD or HP-β-CD monomers as controls. Comparisons were made at equivalent β-CD concentrations in these experiments, such that each PR construct carrying 10 copies of β-CD was administered at a 10-fold lower molar concentration than for the β-CD monomer controls, so that any apparent differences in cholesterol mobilization could be attributed to the PR agent (a type of β-CD prodrug) rather than the total drug concentration added to the cells.
HP-β-CD and SBE-β-CD monomers decreased the average filipin staining in npc1−/− fibroblasts to approximately 75% of the untreated control levels after 6 h. PR comprised of 100% HP-β-CD and 100% SBE-β-CD performed equivalently, each decreasing filipin staining to ˜78% of control. PRs carrying 30:70 SBE-β-CD:HP-β-CD ratio decreased fluorescence to ˜65% of the untreated group.

[2] = room temperature, in water; cited from earlier work
[3] = within 24 h; cited from earlier work
npc1^−/− mice = conditions: subcutaneous injection, 4.0 mg/kg of body weight; cited from earlier work
[4] = Fixed-field relaxivity measurement at 7 T; format: physicochemical; conditions: 7 T Bruker BioSpec; 23° C.; 0.05 to 1.0 mM Gd in water
Protocol: A fixed field measurement of relaxivity was also performed on aqueous solutions of the polyrotaxane contrast agents in the range of 0.05 to 1.0 mM using a 7 T ([…]) Bruker BioSpec scanner at 23° C. The relaxivity r1 and r2 were determined by plotting the inverse longitudinal (1/T1) and transversal (1/T2) relaxation times, respectively, as a function of Gd concentrations.
Relaxivity Measurements. The longitudinal and transversal relaxation rate of the contrast agents and J774 macrophage cells were measured using a 7 T Bruker BioSpec scanner (Bindley Bioscience Center, West Lafayette, Ind.) 47/30 equipped with a Bruker Biospin MRI GmbH volume coil, 86 mm ID, operating at 300 MHz at 23° C. (RES 300 1 H 112/086 QNS TO AD). […] T1 and T2 values were measured using inversion recovery sequence and multi-slice-multi-echo (MSME) sequence respectively. […] The parameters used are as followed. r1: Repetition times, TE=50.72, 100, 350, 750, 1250, 2500, 3500, and 5000 ms, echo time, TE=22.22 ms, FOV=10×10 mm^2, matrix=128×128, slice thickness=1.0 mm, acquisition number=1. r2: TR=2000 ms, TE=15, 30, 45, 60, 75, 90, 105 ms, FOV=20×20 mm^2, matrix=128×128, slice thickness=1 mm, acquisition number=1. r1 and r2 values were determined by as the slopes of the lines for the plot of 1/T1 and 1/T2 against Gd concentrations, respectively, using the same ROI.

[5] = In vivo MRI contrast enhancement in Balb/C mice; conditions: i.v., 3D T1-weighted MRI
Protocol: In Vivo MRI Contrast Enhancement of Gd^3+—HP-β-CD/SBE-β-CD-PRs. To investigate the MR contrast enhancement and the circulation fate in vivo of the polyrotaxanes, 3D T1-weighted MR images of Balb/C mice after intra-venous injection were acquired with 7 T Bruker small animal scanner before injection and 10, 20, 35, 50, and 60 min post injection. The tissue contrast enhancement of the compounds has different fates dependent on the threading efficiency, molecular weight, size and surface charge of each contrast agent. […] As expected, DOTAREM® was completely eliminated within 20 min, a typical trend commonly observed for small contrast agents.
To quantify the contrast enhancements, the contrast signal-to-noise ratio (CNR) was calculated from regions of interest (ROIs) carefully drawn in the cross-section images of heart, liver, and kidney obtained from the 2D T1-weighted scans. There was insignificant signal enhancement in all these tissues (FIG. 4). […]
In Vivo MR Imaging. […] To quantify the changes in tissues signal intensity, regions of interest (ROIs) were drawn in images of different organs obtained from the 2D T1-weighted scans and ParaVision software was used to evaluate the mean intensities. The contrast-to-noise ratio (CNR) was calculated for the tissues using the following equation: […]

J774 macrophage cells = assay: Cellular uptake by MR relaxation of lysed cells; format: cell-based; conditions: 0.1 mM Gd, 12 h at 37° C., serum free media, 7 T
Protocol: Cellular Uptake Studies. Since macromolecular constructs such as polyrotaxanes can trigger the innate immune system (monocytes, macrophages, dendritic cells) in vivo, their uptake of the polyrotaxane contrast was evaluated by macrophages using the MR imaging modality. In addition, one can take advantage of the biological properties of these materials to image macrophages in human diseases including cancer, atherosclerosis, myocardial infarction, diabetes and other conditions. Macrophages are known to play an important role in host system defense leading to the detrimental fate of most nanomaterials. […] Based on these reports, cellular uptake in J774 macrophages of the polyrotaxane contrast agents was assessed. […] T1 and T2 values from the lysed cells contained in 300 μL eppendorf tubes were measured using an inversion recovery sequence at 7 T and the inverse of spin-lattice (1/T1) and spin-spin (1/T2) relaxation times were evaluated. […]
Cellular Uptake Studies. […] These cells were then collected and analyzed using reverse spin echo scanning on Bruker 7 T Biospect small animal scanner (Bindley Bioscience Center, West Lafayette, Ind.). The relaxations T1 and T2 values were collected from samples images recorded from the cells contained in 300 μL plastic containers using the scanning conditions similarly to those employed for In vitro imaging of polyrotaxane solutions.

Row | time to complete elimination [5] [min] | Molecule | filipin staining, % of untreated control [1] | water solubility [2] [g/mL] | fraction cleared from the bloodstream [3] [%] | effect on survival, hepatopathology, neuropathology (npc1^−/− mice) | r1 (mM^−1s^−1) (1/T1) [4] [mM⁻¹ s⁻¹] | cellular uptake (1/T1, 1/T2 of lysed cells) (J774 macrophage cells)
1 | – | 4-sulfobutylether-β-cyclodextrin [SBE-β-CD] | approximately 75% | – | – | – | – | –
2 | – | 2-Hydroxypropyl-β-cyclodextrin [HP-β-CD] | approximately 75% | 0.65 | > 90 | improvement in their survival, hepatopathology, and neuropathology | – | –
3 | ≤ 20 | CNC[C@H](O)[C@@H](O)[C@H](O)[C@H](O)CO.O=C([O-])CN1CCN(CC(=O)[O-])CCN(CC(=O)O)CCN(CC(=O)[O-])CC1.[Gd+3] [DOTAREM] | – | – | – | – | 3.8 | did not show any endocytosis
